Values of other authors, collected in US5204349A, “Amide-substituted derivatives of spiroindanylcamphorsulfonyl oxytocin antagonists” (priority 1991, dated 1993).
Like-named read-outs stand apart in the source and are kept apart here.

How the values were obtained:
[1] = compared with ritodrine
[2] = tocolytic use, mother and infant

CCO [Ethanol]
effectiveness in preventing premature labor [1]: as effective as ritodrine in preventing premature labor
reduction in the incidence of fetal respiratory distress [1]: does not produce a corresponding reduction in the incidence of fetal respiratory distress that administration of ritodrine does

O=S(=O)([O-])[O-].[Mg+2] [Magnesium sulfate]
adverse effects at plasma concentrations above the therapeutic range (plasma concentrations above 4 to 8 mg/dL): can cause inhibition of cardiac conduction and neuromuscular transmission, respiratory depression and cardiac arrest

CC(NCCc1ccc(O)cc1)C(O)c1ccc(O)cc1 (stereo not drawn) [Ritodrine]
side effects [2]: causes a number of cardiovascular and metabolic side effects in the mother, including tachycardia, increased renin secretion, hyperglycemia (and reactive hypoglycemia in the infant)

CC(C)(C)NCC(O)c1ccc(O)c(CO)c1 (stereo not drawn) [albuterol]
side effects (in vivo): side effects similar to those of ritodrine

CC(C)(C)NCC(O)c1cc(O)cc(O)c1 (stereo not drawn) [terbutaline]
side effects [2]: side effects similar to those of ritodrine
